Test results as given in patent publication US8200312B2, “Apparatus for monitoring a system pressure in space with time and method for assessing drug delivery and resistance to therapy and product” (Yeda Research and Development Co. Ltd., priority 2006, dated 2012).
Entries after “also recorded” stand apart in the source; their conditions may differ.

Experiments:
[1] = system: H460 human non-small-cell lung cancer tumors; assay: Dynamic contrast-enhanced MRI during slow GdDTPA infusion: vascular parameters before and after collagenase; assay type: in vivo, female CD1-NU immunodeficient mice
Method: (§1) Collagenase catalyzes the degradation of collagen fibers. Changing the collagen microfibrillar network in tumors modulates the extracellular matrix and causes a decrease in IFP (10, 26). H460 tumors were monitored during infusion, in the dynamic period and at steady state 24 h before and ˜5 h after collagenase administration (0.4 mg/kg body w). […] Similarly, maps of transcapillary transfer due to pressure gradients, k^ΔP, and the profiles of this parameter across the tumor indicated a change, particularly in the tumor's central region, from a negative k^ΔP before collagenase to a null or positive k^ΔP after collagenase (FIG. 6).
(§2) Human NCI-H460 non small cell lung cancer (NSCLC) cells were cultivated and implanted into the flanks of female CD1-NU immunodeficient mice, as previously described (4). During the MRI experiments, mice were anaesthetized by inhalation of 1% isofluorane (Medeva Pharmaceuticals, Inc., Rochester, N.Y., USA) in an O2/N2O (3:7) mixture applied through a nose cone (4). Collagenase (Sigma-Aldrich, St Louis, Mo., USA) treatment was applied by i.v. injection of 0.4 mg/kg body w of this enzyme (1 mg=161 collagen digestion units).
MRI scanning was performed on a 4.7-T Biospec spectrometer (Bruker Biospin, Rheinstetten, Germany) employing the same spatial resolution of 0.2×0.2×1 mm^3 in all protocols. Delineation of the boundary of the tumors and determination of their volume was achieved by analyzing images recorded with a 2-dimensional fast spin echo sequence using […] as previously described (40).
(§3) Tissue contrast agent concentration at steady state infusion was determined from measurements of T1 relaxation rates before, and at 90 min after the start of the intravenous infusion of the contrast agent as previously described (4). For the dynamic measurements 3-dimensional T1. weighted gradient echo images were recorded using TErTR=2.1/18.3 ms and flip angle=45°, 47 s temporal resolution. After recording 5 pre-contrast images, slow infusion of GdDTPA (gadopentate-dimeglumine, Schering, Berlin, Germany) was initiated at a rate of 0.011 mmol/min/kg body wt. for a total time of 120 min.
Analysis of the dynamic data collected during the slow infusion was performed at pixel resolution, on the basis of a model proposed by Jain et al (1, 35, 41-43). This model takes into account the transfer of solutes through the capillary walls and within the interstitial spaces by both diffusion in the direction of the concentration gradients and convection in the direction of the pressure gradients. Relying on few assumptions, which are described herein two differential equations were solved. The first equation applies to regions with low IFP were positive pressure gradients favors net transfer of contrast agent from the capillaries into the tissue (see equation 1) and the second one applies to intra tumoral regions with high IFP where a pressure gradients in the interstitium favors outward convection of the contrast agent and reduces the net delivery to these regions (see equation 2).
Where Ct is the contrast agent concentration in the entire tissue, Dinf is the contrast agent-infusion rate, k^trans the transcapillary transfer constant, k^ΔP the pressure gradients derived transfer rate which also depends on the shape, morphology, and the hydraulic conductivity of the tissue (1). νe represents the extracellular extravascular (EES) volume fraction, and νp the intravascular volume fraction. The parameters ai, and mi (i=1,2) represent the average plasma pharmacokinetic amplitude and time constant parameters, respectivelyt calculated to be a1=2.94 kg/l, a2=4.85 kg/l, m1=0.73 min^−1, and m2=0.075 min^−1 as previously reported (44).
A nonlinear “best fit” algorithm (40) was applied to fit the time courses to Equations 1 and 2, calculating the proportion of variability, R^2, per pixel for each fitting. […]

[2] = system: H460 tumors; assay: Steady-state tissue GdDTPA concentration maps (T1 relaxation MRI) before and after collagenase; assay type: in vivo, female CD1-NU immunodeficient mice
Method: as §1, §2, §3
Tissue GdDTPA concentration (CGd) at steady state was calculated at pixel resolution from the T1 measurements, as previously described (4).

[3] = system: human osteosarcoma xenografts; details: collagenase (0.1%), cited from earlier work
[4] = system: tumors; details: intra-tumoral injection; cited from earlier work
[5] = as previously reported (44); cited from earlier work
[6] = system: ectopic human non-small-cell lung cancer and orthotopic MCF7 human breast tumors; details: slow infusion for ~2 hours; cited from earlier work
[7] = system: fibrosarcoma mouse model; details: cited from earlier work
[8] = inside H460 tumors (excluding the rim), 5 h after collagenase administration
[9] = H460 tumors, within hours after administration
[10] = steady state infusion, ~5 h after collagenase 0.4 mg/kg

In the case of collagenase, the “all other vascular parameters derived from the analysis, change after collagenase” value ([1]; H460 tumors, ~5 h after collagenase 0.4 mg/kg) is reported as “did not change significantly”, the “change of pressure dependent transfer constant in the tumors' central/internal regions after collagenase” value ([1]; H460 tumors, from negative to positive values) is reported as “significant increase; also recorded: significant change” and the “k^ΔP in the internal parts of the tumors following collagenase treatment” value ([1]; increased from (−2.6±3.7)*10^−3, paired t-test, p=0.016) is reported as 8.6±8.9 *10^−3. For the same compound, the “K^trans*10^−3” value [1, 8] was 3.7 ± 3.4 *10^−3, the “[…]e (extracellular extravascular volume fraction)” value [1, 8] was 0.24 ± 0.06 and the “[…]p (intravascular volume fraction)” value [1, 8] was 0.053 ± 0.027. For the same compound, the “K^□p*10^−3 (pressure dependent transfer constant)” value ([1]; inside H460 tumors (excluding the rim), 5 h after collagenase administration, 0.4 mg/kg i.v., mean ± SD) was 8.6 ± 8.9 *10^−3, the “steady state tissue GdDTPA concentration in the internal parts after collagenase treatment” value ([2]; H460 tumors) was “significantly increased” and the “effect on IFP” value [2, 9] was “reduces IFP”. The “effect on uptake of a contrast agent” value [2, 9] was “increases the uptake”, the “outward convection after collagenase treatment” value [2, 10] was “vanished” and the “transfer of the contrast agent in the interior regions of the tumor after collagenase” value [2, 10] was “markedly increased”. The “effect on IFP” value ([3]; within hours) was “reduced IFP”, the “increase in the tumor uptake and distribution of a monoclonal antibody” value [3] was 2 fold and the “effect on IFP” value [4] was “reduce IFP”. The “effect on uptake of antibodies” value [4] was “increase the uptake”.

For `O=C([O-])CN(CCN(CC(=O)[O-])CC(=O)O)CCN(CC(=O)[O-])CC(=O)O.[Gd+3]` [GdDTPA, gadolinium-diethylenetriaminepentaacetic acid], the “a1, average plasma pharmacokinetic amplitude” value [5] is listed as 2.94 kg/L, the “a2, average plasma pharmacokinetic amplitude” value [5] is listed as 4.85 kg/L and the “m1, plasma time constant parameter” value [5] is listed as 0.73 min⁻¹. The “m2, plasma time constant parameter” value [5] was 0.075 min⁻¹, the “steady-state tissue GdDTPA concentration further inside the tumor” value [6] was “low or null values” and the “steady-state tissue GdDTPA concentration in the tumor periphery” value [6] was roughly 0.5 mmol/L. The “steady-state tissue GdDTPA concentration outside the tumor boundaries” value [6] was roughly 1 mmol/L.

For hyaluronidase, the “effect on IFP” value [4] is listed as “reduce IFP” and the “effect on uptake of antibodies” value [4] is listed as “increase the uptake”.

In the case of `O=C1CCC(N2C(=O)c3ccccc3C2=O)C(=O)N1` (stereo not drawn) [thalidomide], the “plasma volume fraction and fractional efflux rate from the interstitial space to the plasma” value ([7]; accompanying the decline in IFP) is listed as “increased” and the “effect on IFP” value ([7]; fibrosarcoma mouse model) is listed as “decline”.
